Patent US20100041662A1, “Heterocyclic compounds as antiinflammatory agents” (priority 2006, published 2010)

Key:
[1] = biological target: T1, JAK2 (GST-JAK2(808-1132)) (Homo sapiens, UniProt O60674); assay: JAK/TYK-kinase family profiling, Caliper mobility shift assay; format: biochemical; details: 20 μM ATP, JAK3tide substrate
T1 construct: GST-JAK2(808-1132) was purchased from Invitrogen (Carlsbad, USA, #4288); purchased Invitrogen (Carlsbad, USA) #4288
Text: All four kinases of the JAK/TYK-kinase family were used as purified recombinant GST-fusion proteins, containing the active kinase domains. GST-JAK1(866-1154), GST-JAK3(811-1124), and GST-TYK2(888-1187) were expressed and purified by affinity chromatography at the EPK biology unit. GST-JAK2(808-1132) was purchased from Invitrogen (Carlsbad, USA, #4288).
The kinase assays were based on the Caliper mobility shift assay using the LabChip 3000 systems. This technology is similar to capillary electrophoresis and uses charge driven separation of substrate and product in a microfluidic chip.
All kinase reactions were performed in 384 well microtiter plates in a total reaction volume of 18 μl. The assay plates were prepared with 0.1 μl per well of test compound in the appropriate test concentration, as described under the section “preparation of compound dilutions”. The reactions were started by combining 9 μl of substrate mix (consisting of peptide and ATP) with 9 μl of kinase dilution. The reactions were incubated for 60 minutes at 30° C. and stopped by adding 70 μl of stop buffer (100 mM Hepes, 5% DMSO, 0.1% Coating reagent, 10 mM EDTA, 0.015% Brij 35).
Fluorescently labeled synthetic peptides were used as substrates in all reactions. A peptide derived from the sequence of IRS-1 (IRS-1 peptide, FITC-Ahx-KKSRGDYMTMQIG-NH2) was used for JAK1 and TYK2 and a peptide named JAK3tide (FITC-GGEEEEYFELVKKKK-NH2) for JAK2 and JAK3. Specific assay conditions are described in Table 1:
The terminated reactions were transferred to the Caliper LabChip 3000 reader and the turnover of each reaction was measured by determining the substrate/product ratio.
Test compounds were dissolved in DMSO (10 mM) and transferred into 1.4 mL flat bottom or V-shaped Matrix tubes carrying a unique 2D matrix chip by individual compound hubs. The numbers of these chips were distinctively linked to the individual compound identification numbers. The stock solutions were stored at −20° C. if not used immediately. For the test procedure the vials were defrosted and identified by a scanner whereby a working sheet was generated that guided the subsequent working steps.
Compound dilutions were made in 96 well plates. This format enabled the assay of maximally 40 individual test compounds at 8 concentrations (single points) including 4 reference compounds. The dilution protocol included the production of pre-dilution plates, master plates and assay plates:
Pre-dilution plates: 96 polypropylene well plates were used as pre-dilution plates. A total of 4 pre-dilution plates were prepared including 10 test compounds each on the plate positions A1-A10, one standard compound at A11 and one DMSO control at A12. All dilution steps were done on a HamiltonSTAR robot. Master plates: 100 μL of individual compound dilutions including standard compound and controls of the 4 “pre-dilution plates” were transferred into a 384 “master plate” including the following concentrations 1′820, 564, 182, 54.6, 18.2, 5.46, 1.82 and 0.546 μM, respectively in 90% of DMSO. Assay plates: Identical assay plates were then prepared by pipetting […] each of compound dilutions of the master plates into 384-well “assay plates”. In the following the compounds were mixed with 9 μL of assays components plus 9 μL enzyme corresponding to a 1:181 dilution steps enabling the final concentration of 10, 3.0, 1.0, 0.3, 0.1, 0.03, 0.01 and 0.003 μM, respectively. The preparation of the master plates were handled by the Matrix PlateMate Plus robot and replication of assay plates by the HummingBird robot.

[2] = biological target: T2, human ALK5 (ALK5 T204D kinase domain) (Homo sapiens, UniProt P36897, T204D); assay: ALK5 kinase activity, [33P] phosphate incorporation into casein; format: biochemical; details: casein substrate
T2 construct: The kinase domain of human ALK5 (amino acids 200-503) is fused to an N-terminal histidine tag; made in house; host or cells: insect cells (baculovirus)
T2 sequence (P36897 200-503 T204D): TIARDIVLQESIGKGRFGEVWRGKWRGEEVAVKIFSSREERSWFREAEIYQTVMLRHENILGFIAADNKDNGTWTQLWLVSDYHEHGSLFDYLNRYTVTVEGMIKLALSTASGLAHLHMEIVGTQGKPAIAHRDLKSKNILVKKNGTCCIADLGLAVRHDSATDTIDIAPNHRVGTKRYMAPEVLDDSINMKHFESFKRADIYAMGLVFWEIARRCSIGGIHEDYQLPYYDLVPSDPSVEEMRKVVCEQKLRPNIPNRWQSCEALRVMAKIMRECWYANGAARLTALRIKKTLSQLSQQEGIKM
Experimental: The kinase activity of ALK5 is assessed by measuring radiolabelled phosphate [33P] incorporation in to the generic substrate, casein. The kinase domain of human ALK5 (amino acids 200-503) is fused to an N-terminal histidine tag. The kinase activity of ALK5 is rendered constitutive via point mutation at amino acid 204 (threonine to aspartate modification, ALK5 T204D) and the kinase construct is engineered to be expressed from a baculovirus expression construct in insect cells. The purified, recombinantly-expressed histidine-tagged ALK5 T204D protein is dissolved at 5.4 mg/ml in 50 mM Tris-HCl pH 8.0, 150 mM NaCl, 5 mM DTT. ALK5 T204D is dissolved to 2.5 μg/ml in assay buffer (Assay buffer: 20 mM Tris-HCl pH 7.4, 10 mM MgCl2, 2 mM MnCl2) on the day of use.
Test compounds and reference compounds are dissolved in assay buffer without DTT containing 5% (v/v) DMSO. Stock solutions of test and reference compounds are diluted in assay buffer with DTT (1.25 mM) containing 4.5% (v/v) DMSO. 10 μl of test or reference compound are added to the appropriate wells of 96 well U-bottomed plate. Total enzyme activity is determined by measuring ALK5 T204D activity in the absence of ALK5 kinase inhibitor reference compounds. Non-specific binding (NSB) is determined by measuring the activity of ALK5 T204D in the presence of ALK5 kinase inhibitor reference compounds. 10 μl of dephosphorylated casein stock solution (dephosphorylated casein is dissolved in ddH2O at 20 mg/ml) is added per well (200 μg/well final assay concentration). 20 μl of ALK5 T204D (2.5 μg/ml solution) is added per well (50 ng/well final assay concentration). The plates are left to incubate at room temperature for 10 minutes.
10 μl of ATP mix is added to the well to initiate the reaction (0.66 nM [^33P]ATP/1 μM unlabelled ATP/well final assay concentration). The ATP mix is prepared as follows, unlabelled ATP (3 mM) is dissolved in ddH2O and pH adjusted to 7.4. The stock concentration of [^33P]ATP is 10 μCi/μl. The appropriate volume of [^33P]ATP is added to unlabelled ATP solution such that the final assay concentration per well is 0.1 μCi. Following addition of the ATP mix, the plates are incubated at room temperature for 50 minutes. The kinase reaction is terminated by the addition of 50 μL Stop Buffer (20 mM Tris-HCl pH 7.4, 10 mM EDTA).
75 μl/well from the reaction plate is transferred to a Multiscreen-IP plate (MultiScreen-IP plates are prepared by added 50 μL of 70% (v/v) ethanol per well and incubated for 5 minutes at room temperature. The ethanol is removed by aspiration via a MultiScreen HTS Vacuum Manifold unit (Millipore, Cat no: MSVMHT500). The plates are washed twice by adding 200 μl/well ddH2O). The MultiScreen-IP plate is incubated at room temperature for 30 minutes to allowing binding of casein to the plate. The MultiScreen-IP plates are washed three times by adding 200 μl/well 100 mM phosphoric acid solution and the gasket is carefully removed from the back of the MultiScreen-IP plate and the plate dried in the oven for 30 minutes. The MultiScreen-IP plate is backsealed, 50 μL of Microscint™20 is added, then the plates are topsealed and radiolabelled casein detected and quantified on a TopCount™ plate-reader using the ^33P scintillation protocol.

[3] = system: bleomycin-induced pulmonary fibrosis; details: bleomycin-treated rats; cited from earlier work

T1 sequence (O60674 808-1132): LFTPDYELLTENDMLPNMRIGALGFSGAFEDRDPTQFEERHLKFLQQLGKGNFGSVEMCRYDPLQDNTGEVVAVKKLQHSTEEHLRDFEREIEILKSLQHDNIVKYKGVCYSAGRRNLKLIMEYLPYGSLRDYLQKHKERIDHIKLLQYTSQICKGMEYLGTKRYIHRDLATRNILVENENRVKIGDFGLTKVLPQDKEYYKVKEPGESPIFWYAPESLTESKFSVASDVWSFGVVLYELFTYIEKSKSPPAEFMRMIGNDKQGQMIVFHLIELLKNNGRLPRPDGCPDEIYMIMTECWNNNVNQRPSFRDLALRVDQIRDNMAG

For CCN1CCCC1CNC(=O)c1ccc(-c2cnc3ccc(NCc4cc(F)ccc4F)nn23)cc1 (stereo not drawn) [Example 2.6, 4-[6-(2,5-Difluoro-benzylamino)-imidazo[1,2-b]pyridazin-3-yl]-N-(1-ethyl-pyrrolidin-2-ylmethyl)-benzamide], which IC50 [1] is on record?
Its IC50 is 11 nM.

For Cc1ccc(-c2cc(-c3cnc4ccc(NC5CCC(O)CC5)nn34)ccn2)s1 (stereo not drawn) [Example 1.2, 4-{3-[2-(5-Methyl-thiophen-2-yl)-pyridin-4-yl]-imidazo[1,2-b]pyridazin-6-ylamino}-cyclohexanol], which IC50 [2] is on record?
The IC50 was 36 nM.

Which IC50 [2] does the source give for OC1CCC(Nc2ccc3ncc(-c4ccnc(-c5ccoc5)c4)n3n2)CC1 (stereo not drawn) [Example 1.3, 4-[3-(2-Furan-3-yl-pyridin-4-yl)-imidazo[1,2-b]pyridazin-6-ylamino]-cyclohexanol] here?
The IC50 was 5 nM.

Which IC50 [2] does the source give for OC1CCC(Nc2ccc3ncc(-c4cccc(-n5cccn5)c4)n3n2)CC1 (stereo not drawn) [Example 1.7, 4-[3-(3-Pyrazol-1-yl-phenyl)-imidazo[1,2-b]pyridazin-6-ylamino]-cyclohexanol] here?
The IC50 was 5 nM.

Which IC50 [2] does the source give for O[C@H]1CC[C@H](Nc2ccc3ncc(-c4ccnc(-c5ccncc5)c4)n3n2)CC1 [Example 1.1, 4-(3-[2,4′]Bipyridinyl-4-yl-imidazo[1,2-b]pyridazin-6-ylamino)-cyclohexanol] here?
Its IC50 is 42 nM.

For OC1CCC(Nc2ccc3ncc(-c4ccnc(C5CC5)c4)n3n2)CC1 (stereo not drawn) [Example 1.6, 4-[3-(2-Cyclopropyl-pyridin-4yl)-imidazo[1,2-b]pyridazin-6-ylamino]-cyclohexanol], which IC50 [2] is on record?
Its IC50 is 15 nM.

For O=C(c1ccc(-c2cnc3ccc(NCc4cc(F)ccc4F)nn23)cc1)N1CCOCC1 [Example 2.4, {4-[6-(2,5-Difluoro-benzylamino)-imidazo[1,2-b]pyridazin-3-yl]-phenyl}-morpholin-4-yl-methanone], which IC50 [1] is on record?
The IC50 was 20 nM.

For CN1CCN(C(=O)c2ccc(-c3cnc4ccc(NCc5cc(F)ccc5F)nn34)cc2)CC1 [Example 2.1, {4-[6-(2,5-Difluoro-benzylamino)-imidazo[1,2-b]pyridazin-3-yl]-phenyl}-(4-methyl-piperazin-1-yl)-methanone], which IC50 [1] is on record?
The IC50 was 16 nM.

With CN(C)C1CCN(C(=O)c2ccc(-c3cnc4ccc(NCc5cc(F)ccc5F)nn34)cc2)CC1 [Example 2.3, {4-[6-(2,5-Difluorobenzylamino)-imidazo[1,2-b]pyridazin-3-yl]-phenyl}-(4-dimethylamino-piperidin-1-yl)-methanone] as the molecule, how does the IC50 [1] read?
The IC50 was 14 nM.

For O=C(NC1CCOCC1)c1cccc(-c2cnc3ccc(NCc4cc(F)ccc4F)nn23)c1 [Example 2.5], which IC50 [1] is on record?
The IC50 was 21 nM.

Which IC50 [2] does the source give for Cn1cc(-c2cc(-c3cnc4ccc(NC5CCC(O)CC5)nn34)ccn2)cn1 (stereo not drawn) [Example 1.4, 4-{3-[2-(1-Methyl-1H-pyrazol-4-yl)-pyridin-4-yl]-imidazo[1,2-b]pyridazin-6-ylamino}-cyclohexanol] here?
The IC50 was 150 nM.

For O=C(NCCN1CCOCC1)c1ccc(-c2cnc3ccc(NCc4cc(F)ccc4F)nn23)cc1 [Example 2.2, 4-[6(2,5-Difluorobenzylamino)-imidazo[1,2-b]pyridazin-3-yl]-N-(2-morpholin-4-yl-ethyl)benzamide], which IC50 [1] is on record?
Its IC50 is 8 nM.

For O=C(NC1CCOCC1)c1ccc(-c2cnc3ccc(NCc4cc(F)ccc4F)nn23)cc1 [Example 2.7, 4-[6-(2,5-Difluorobenzylamino)-imidazo[1,2-b]pyridazin-3-yl]-N-(tetrahydro-pyran-4-yl)-benzamide], which IC50 [1] is on record?
The IC50 was 13 nM.

B1: follistatin: an antagonist of activin signalling (protein, UniProt P19883 30-344, looked up)
Follistatin: GNCWLRQAKNGRCQVLYKTELSKEECCSTGRLSTSWTEEDVNDNTLFKWMIFNGGAPNCIPCKETCENVDCGPGKKCRMNKKNKPRCVCAPDCSNITWKGPVCGLDGKTYRNECALLKARCKEQPELEVQYQGRCKKTCRDVFCPGSSTCVVDQTNNAYCVTCNRICPEPASSEQYLCGNDGVTYSSACHLRKATCLLGRSIGLAYEGKCIKAKSCEDIQCTGGKKCLWDFKVGRGRCSLCDELCPDSKSDEPVCASDNATYASECAMKEAACSSGVLLEVKHSGSCNSISEDTEEEEEDEDQDYSFPISSILEW
With B1 as the molecule, how does the “destruction of lung architecture” value [3] read?
The value was “ameliorated”.

What about the lung fibrosis [3] of the same molecule?
Its lung fibrosis is “attenuated”.

And the “number of infiltrating cells” value [3]?
The value was “markedly reduced”.

And the “number of macrophages and neutrophils in bronchoalveolar lavage” value [3]?
The value was “significantly reduced”.

And the “protein content of bronchoalveolar lavage” value [3]?
The value was “reduced the protein content”.
